Patent US12606520B2, “Calpain-2 inhibitor compounds and methods of treatment” (WESTERN UNIVERSITY OF HEALTH SCIENCES, priority 2020, dated 2026)
Read-outs that look alike come from different tables or passages of the source.

Experiments:
[1] = Stability in mouse liver homogenate (residual inhibition of purified human calpain-2); format: in vitro ADME; conditions: B-cyclodextrin formulation, read-out: Estimated half-life in mouse liver homogenate (converted)
Experimental: Aliquots were taken and the degree of inhibition of purified human calpain-2 was measured. Results were normalized to the maximum degree of inhibition (100%) measured at t0.

[2] = PK in mice after iv injection of liposomal NA112: plasma; format: in vivo; conditions: for concentration at 0.0167 hr / concentration at 0.0833 hr / concentration at 0.25 hr / concentration at 0.5 hr / concentration at 1 hr / concentration at 2 hr / concentration at 4 hr / concentration at 8 hr / concentration at 16 hr / concentration at 24 hr: iv, 10 mg/kg, mice iv 10 mg/kg liposomes
Experimental: (§1) NA112 was prepared in liposomes at a concentration of 1.5 mg/ml. Mice were injected in the tail vein with 200 μl of NA112 in liposomes (corresponding to a dose of 10 mg/kg) and were sacrificed at the following time-points: 1, 5, 15, 30 min, 1, 2, 4, 8, 16 and 24 h. Blood was collected and plasma rapidly prepared by centrifugation. Brains were also collected. NA112 in plasma and in brain homogenates was assayed with LC/Ms and the sensitivity of the assay was 1 ng/ml. Experiments were performed in duplicate (A1 and A2 in Table 3). Results were averaged for preparing the figure and calculating the half-life of NA112 in plasma and in brain.
A two-compartment model was used to analyze the data from FIG. 14. This assumes that there is a rapid distribution of the drug from the plasma to various organs, followed by a slower elimination of the drug form the plasma. […] In FIG. 16, changes in NA112 plasma concentrations fitted with the 2-compartment model. The data from FIG. 14 are fitted with the 2-compartment model equation, showing the very good fit between the predicted values and the observed values.

[3] = PK in mice after iv injection of liposomal NA112: brain; format: in vivo; conditions: mouse; for concentration at 1 min / concentration at 5 min / concentration at 0.25 h / concentration at 0.5 hr / concentration at 1 hr / concentration at 2 h / concentration at 4 h / concentration at 8 h / concentration at 16 h: iv, 10 mg/kg, mice iv 10 mg/kg liposomes; for concentration at 1 min: 0.0167 hr; for concentration at 5 min: 0.0833 hr
Experimental: as §1
Data from table 4 are plotted as a function of time. While the curve is not easily fitted with a 2-compartment model, the slower component appears to have a half-life of about 3 h.

[4] = as above; format: in vivo; conditions: mice iv 10 mg/kg liposomes, 24 hr; BLQ: below the limit of quantification, assay sensitivity 2 ng/ml
[5] = 2-compartmental model, mice iv 10 mg/kg in liposomes
[6] = mouse, read-out: Plasma concentration A1
[7] = mouse, read-out: Plasma concentration A2
[8] = mouse, read-out: Plasma concentration Mean
[9] = read-out: Brain concentration A1
[10] = read-out: Brain concentration A2
[11] = read-out: Brain concentration Mean

SMILES: CCC(NC(=O)[C@H](CC(C)C)NC(=O)NCc1ccccc1)C(=O)C(=O)NCc1cc(OC)cc(OC)c1 (mixture of isomers) [NA112, (2S)-2-(3-benzylureido)-N-(1-((3,5-dimethoxybenzyl)amino)-1,2-dioxopentan-3-yl)-4-methylpentanamide]
- half-life [1]: 15 h
- A [2, 5]: 28944.68 ng/mL
- B [2, 5]: 42.70 ng/mL
- T½α [2, 5]: 0.23 h
- T½β [2, 5]: 7.80 h
- α [2, 5]: 3.01 h⁻¹
- β [2, 5]: 0.09 h⁻¹
- half-life ([2]; mouse, 2-compartment model, mice iv 10 mg/kg in liposomes): 7.8 h
- AUC from zero to infinity ([2]; mouse, 2-compartmental model, mice iv 10 mg/kg in liposomes, read-out: AUC0-00): 17000 ng·h/mL
- concentration at 0.0167 hr [2, 6]: 45300 ng/mL
- concentration at 0.0167 hr [2, 7]: 63500 ng/mL
- concentration at 0.0167 hr [2, 8]: 54400 ng/mL
- concentration at 0.0833 hr [2, 6]: 116000 ng/mL
- concentration at 0.0833 hr [2, 7]: 69100 ng/mL
- concentration at 0.0833 hr [2, 8]: 92300 ng/mL
- concentration at 0.25 hr [2, 6]: 2120 ng/mL
- concentration at 0.25 hr [2, 7]: 939 ng/mL
- concentration at 0.25 hr [2, 8]: 1530 ng/mL
- concentration at 0.5 hr [2, 6]: 6760 ng/mL
- concentration at 0.5 hr [2, 7]: 432 ng/mL
- concentration at 0.5 hr [2, 8]: 3590 ng/mL
- concentration at 1 hr [2, 6]: 5550 ng/mL
- concentration at 1 hr [2, 7]: 390 ng/mL
- concentration at 1 hr [2, 8]: 2970 ng/mL
- concentration at 2 hr [2, 6]: 107 ng/mL
- concentration at 2 hr [2, 7]: 84 ng/mL
- concentration at 2 hr [2, 8]: 95.5 ng/mL
- concentration at 4 hr [2, 6]: 34.6 ng/mL
- concentration at 4 hr [2, 7]: 30 ng/mL
- concentration at 4 hr [2, 8]: 32.3 ng/mL
- concentration at 8 hr [2, 6]: 17.4 ng/mL
- concentration at 8 hr [2, 7]: 20.6 ng/mL
- concentration at 8 hr [2, 8]: 19 ng/mL
- concentration at 16 hr [2, 6]: 10.8 ng/mL
- concentration at 16 hr [2, 7]: 9.79 ng/mL
- concentration at 16 hr [2, 8]: 10.3 ng/mL
- concentration at 24 hr [2, 6]: 5.63 ng/mL
- concentration at 24 hr [2, 7]: 4.67 ng/mL
- concentration at 24 hr [2, 8]: 5.15 ng/mL
- concentration at 1 min [3, 9]: 520 ng/mL
- concentration at 1 min [3, 10]: 305 ng/mL
- concentration at 1 min [3, 11]: 412 ng/mL
- concentration at 5 min [3, 9]: 168 ng/mL
- concentration at 5 min [3, 10]: 129 ng/mL
- concentration at 5 min [3, 11]: 149 ng/mL
- concentration at 0.25 h [3, 9]: 106 ng/mL
- concentration at 0.25 h [3, 10]: 62.3 ng/mL
- concentration at 0.25 h [3, 11]: 84.4 ng/mL
- concentration at 0.5 hr [3, 9]: 60.6 ng/mL
- concentration at 0.5 hr [3, 10]: 63.4 ng/mL
- concentration at 0.5 hr [3, 11]: 62 ng/mL
- concentration at 1 hr [3, 9]: 45.6 ng/mL
- concentration at 1 hr [3, 10]: 48.4 ng/mL
- concentration at 1 hr [3, 11]: 47 ng/mL
- concentration at 2 h [3, 9]: 25.9 ng/mL
- concentration at 2 h [3, 10]: 30.9 ng/mL
- concentration at 2 h [3, 11]: 28.4 ng/mL
- concentration at 4 h [3, 9]: 14 ng/mL
- concentration at 4 h [3, 10]: 21.3 ng/mL
- concentration at 4 h [3, 11]: 17.6 ng/mL
- concentration at 8 h [3, 9]: 19.5 ng/mL
- concentration at 8 h [3, 10]: 15.4 ng/mL
- concentration at 8 h [3, 11]: 17.4 ng/mL
- concentration at 16 h [3, 9]: 6.65 ng/mL
- concentration at 16 h [3, 10]: 9.41 ng/mL
- concentration at 16 h [3, 11]: 8.03 ng/mL
- half-life ([3]; mice, iv 10 mg/kg in liposomes, read-out: Half-life of slower component in brain (converted)): ~3 h
- Brain concentration A1 [4]: BLQ
- Brain concentration A2 [4]: BLQ
- Brain concentration Mean [4]: BLQ
